Source: publication PMC4655258 (Enzyme Research, 2015)
Read-outs that look alike come from different tables or passages of the source.

Tests used:
[1] = cited from earlier work
CYP1B1 = system: CYP1B1; parameters: method as in PMID 18256205; conditions: cited from earlier work
CYP1A1 = target: T1, CYP1A1 (Homo sapiens, UniProt P04798); experiment: Fluorometric HTS enzyme assay, recombinant CYP1A1 (CEC substrate); assay type: biochemical; conditions: ±SEM, 3 replicate assays; 5 μM CEC
T1 construct: purchased BD Bioscience (Woburn, MA); host or cells: baculovirus-infected insect cells (microsomes, supersomes)
T1 sequence (P04798 1-512): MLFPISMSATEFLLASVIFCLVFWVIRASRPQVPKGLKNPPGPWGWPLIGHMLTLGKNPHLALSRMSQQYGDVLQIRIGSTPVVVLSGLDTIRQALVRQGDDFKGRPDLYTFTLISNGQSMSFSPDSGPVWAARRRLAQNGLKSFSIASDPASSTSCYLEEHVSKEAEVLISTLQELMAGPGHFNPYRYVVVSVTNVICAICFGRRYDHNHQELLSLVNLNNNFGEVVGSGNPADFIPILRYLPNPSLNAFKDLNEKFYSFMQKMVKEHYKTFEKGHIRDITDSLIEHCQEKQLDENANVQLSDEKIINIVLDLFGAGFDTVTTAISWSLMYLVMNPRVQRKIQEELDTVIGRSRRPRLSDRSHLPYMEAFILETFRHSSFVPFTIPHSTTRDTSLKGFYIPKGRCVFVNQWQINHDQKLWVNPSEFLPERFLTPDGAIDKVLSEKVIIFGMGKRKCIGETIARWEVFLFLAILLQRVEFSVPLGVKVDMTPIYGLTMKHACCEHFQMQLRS
Method: (§1) IC50 determinations for human CYPs were similar to HTS methods described by Crespi et al.. Unless otherwise stated, the incubations were carried out in a total volume of 200 μL of 50 mM potassium phosphate buffer (pH 7.4) with 1% acetonitrile. The reaction mixtures contained NADPH-regenerating system in potassium phosphate buffer (pH 7.4) and varying amounts of inhibitor (dissolved in 100% acetonitrile) were preincubated at 37°C for 10 minutes (except CYP2A6 which was in 100 mM Tris buffer pH 7.4). The reactions were initiated by the addition of enzyme/substrate mixture (see Table 1), followed by incubation at 37°C for 30 minutes. The fluorescent signal was measured using a SpectraMax GEMINI XPS (Molecular Devices) with excitation and emission wavelengths listed in Table 1. The data were fit to sigmoidal dose-response curves with nonlinear regression and IC50 values calculated using GraphPad Prism 5.

CYP2A6 = target: T2, CYP2A6 (Homo sapiens, UniProt P11509); experiment: Fluorometric HTS enzyme assay, recombinant CYP2A6 (coumarin substrate); assay type: biochemical; conditions: ±SEM, 3 replicate assays; 3 μM coumarin
T2 construct: purchased BD Bioscience (Woburn, MA); host or cells: baculovirus-infected insect cells (microsomes, supersomes)
T2 sequence (P11509 1-494): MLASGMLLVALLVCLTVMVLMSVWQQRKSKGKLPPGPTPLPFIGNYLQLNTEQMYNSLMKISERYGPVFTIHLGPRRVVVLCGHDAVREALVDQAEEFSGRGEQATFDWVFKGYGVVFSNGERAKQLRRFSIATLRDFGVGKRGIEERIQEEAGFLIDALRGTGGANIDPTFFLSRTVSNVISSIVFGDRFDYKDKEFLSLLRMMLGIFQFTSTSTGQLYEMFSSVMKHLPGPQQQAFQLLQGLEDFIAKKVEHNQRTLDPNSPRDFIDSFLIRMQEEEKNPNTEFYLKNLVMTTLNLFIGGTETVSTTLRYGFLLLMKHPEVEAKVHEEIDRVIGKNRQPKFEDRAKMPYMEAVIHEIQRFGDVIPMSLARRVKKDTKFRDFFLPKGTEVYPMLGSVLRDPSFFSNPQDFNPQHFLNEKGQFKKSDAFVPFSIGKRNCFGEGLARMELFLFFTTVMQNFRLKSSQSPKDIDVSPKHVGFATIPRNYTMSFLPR
Method: as §1

CYP3A4 = target: T3, CYP3A4 (Homo sapiens, UniProt P08684); experiment: Fluorometric HTS enzyme assay, recombinant CYP3A4 (BFC substrate); assay type: biochemical; conditions: recombinant CYP3A4, pH 7.4, probe BFC, at 1 mM
T3 construct: purchased BD Bioscience (Woburn, MA); host or cells: baculovirus-infected insect cells (microsomes, supersomes)
Method: as §1

T3 sequence (P08684 whole entry): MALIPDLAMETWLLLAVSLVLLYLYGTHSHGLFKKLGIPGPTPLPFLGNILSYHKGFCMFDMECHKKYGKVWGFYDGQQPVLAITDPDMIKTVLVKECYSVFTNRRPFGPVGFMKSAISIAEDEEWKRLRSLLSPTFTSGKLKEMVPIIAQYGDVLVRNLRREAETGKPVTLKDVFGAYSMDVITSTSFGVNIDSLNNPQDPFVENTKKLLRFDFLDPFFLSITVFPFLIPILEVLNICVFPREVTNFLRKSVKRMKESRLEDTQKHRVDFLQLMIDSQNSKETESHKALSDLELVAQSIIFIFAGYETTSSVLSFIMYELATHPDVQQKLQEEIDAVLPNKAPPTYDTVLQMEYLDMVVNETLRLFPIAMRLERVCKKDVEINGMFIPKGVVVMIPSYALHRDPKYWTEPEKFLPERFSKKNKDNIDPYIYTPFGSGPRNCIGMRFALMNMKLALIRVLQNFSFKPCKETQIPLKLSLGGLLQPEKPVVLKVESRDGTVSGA

SMILES	effect of pretreatment on [11C]-vorozole binding in the liver ([1]; baboon and human liver, pretreatment with letrozole)	IC50 (CYP1B1; 2-hydroxy estradiol formation, read-out: IC50 on CYP1B1, estradiol 2-hydroxylation) [µM]	IC50 (CYP1B1; 4-hydroxy estradiol formation, read-out: IC50 on CYP1B1, estradiol 4-hydroxylation) [µM]	IC50 (CYP1A1) [µM]	IC50 (CYP2A6) [µM]	inhibition at 30 min, 1 mM (CYP3A4) [%]	effect of pretreatment on liver pharmacokinetics of [11C]-vorozole binding ([1]; pretreatment with ketoconazole)
N#Cc1ccc(C(c2ccc(C#N)cc2)n2cncn2)cc1 [Letrozole]	does not block	≥ 100	≥ 100	69.8 ± 5.3	106 ± 34	< 10	–
CC(=O)N1CCN(c2ccc(OCC3COC(Cn4ccnc4)(c4ccc(Cl)cc4Cl)O3)cc2)CC1 (stereo not shown) [ketoconazole]	–	–	–	–	–	–	altered
